Results published in ChEMBL document CHEMBL1144896 (2003).

Columns and labels:
[1] = tested on: NCI-H1299; assay: Compound was tested for human telomerase reverse transcriptase-SEAP (hTERT-SEAP) activity in non-small cell lung cancer H1299 cell at 23 uM concentration; assay type: functional
[2] = tested on: NCI-H1299; assay: (§1) hTERT-SEAP (Human telomerase reverse transcriptase-SEAP) activity in non-small cell lung cancer H1299 cell at 2.3 uM concentration and level of cell viability determined in MTT assay; assay type: functional
[3] = tested on: BJ; assay: hTERT-SEAP (Human telomerase reverse transcriptase-SEAP) activity in immortalized hTERT-BJI at 230.0 uM concentration and level of cell viability determined in MTT assay; assay type: functional
[4] = tested on: BJ; assay: Compound was tested for human telomerase reverse transcriptase-SEAP (hTERT-SEAP) activity in immortalized hTERT-BJI at 230.0 uM concentration; assay type: functional
[5] = tested on: NCI-H1299; assay: hTERT-SEAP (Human telomerase reverse transcriptase-SEAP) activity in non-small cell lung cancer H1299 cell at 23 uM concentration and level of cell viability determined in MTT assay; assay type: functional
[6] = tested on: NCI-H1299; assay: as §1; assay type: functional; remark: listed apart in the source
[7] = tested on: NCI-H1299; assay: Compound was tested for human telomerase reverse transcriptase-SEAP (hTERT-SEAP) activity in non-small cell lung cancer H1299 cell at 230.0 uM concentration; assay type: functional
[8] = tested on: NCI-H1299; assay: hTERT-SEAP (Human telomerase reverse transcriptase-SEAP) activity in non-small cell lung cancer H1299 cell at 230.0 uM concentration and level of cell viability determined in MTT assay; assay type: functional
[9] = tested on: NCI-H1299; assay: (§2) Compound was tested for human telomerase reverse transcriptase-SEAP (hTERT-SEAP) activity in non-small cell lung cancer H1299 cell at 2.3 uM concentration; assay type: functional
[10] = tested on: BJ; assay: Compound was tested for human telomerase reverse transcriptase-SEAP (hTERT-SEAP) activity in immortalized hTERT-BJI at 23 uM concentration; assay type: functional
[11] = tested on: BJ; assay: hTERT-SEAP (Human telomerase reverse transcriptase-SEAP) activity in immortalized hTERT-BJI at 23 uM concentration and level of cell viability determined in MTT assay; assay type: functional
[12] = tested on: NCI-H1299; assay: as §2; assay type: functional; remark: listed apart in the source
[13] = tested on: NCI-H1299; assay: Compound was tested for human telomerase reverse transcriptase-SEAP (hTERT-SEAP) activity in non-small cell lung cancer H1299 cell at 19 uM concentration; assay type: functional
[14] = tested on: NCI-H1299; assay: hTERT-SEAP (Human telomerase reverse transcriptase-SEAP) activity in non-small cell lung cancer H1299 cell at 190.0 uM concentration and level of cell viability determined in MTT assay; assay type: functional
[15] = tested on: NCI-H1299; assay: Compound was tested for human telomerase reverse transcriptase-SEAP (hTERT-SEAP) activity in non-small cell lung cancer H1299 cell at 190.0 uM concentration; assay type: functional
[16] = tested on: NCI-H1299; assay: Compound was tested for human telomerase reverse transcriptase-SEAP (hTERT-SEAP) activity in non-small cell lung cancer H1299 cell at 1.9 uM concentration; assay type: functional
[17] = tested on: NCI-H1299; assay: hTERT-SEAP (Human telomerase reverse transcriptase-SEAP) activity in non-small cell lung cancer H1299 cell at 1.9 uM concentration and level of cell viability determined in MTT assay; assay type: functional
[18] = tested on: BJ; assay: hTERT-SEAP (Human telomerase reverse transcriptase-SEAP) activity in immortalized hTERT-BJI at 19 uM concentration and level of cell viability determined in MTT assay; assay type: functional
[19] = tested on: BJ; assay: Compound was tested for human telomerase reverse transcriptase-SEAP (hTERT-SEAP) activity in immortalized hTERT-BJI at 190.0 uM concentration; assay type: functional
[20] = tested on: BJ; assay: Compound was tested for human telomerase reverse transcriptase-SEAP (hTERT-SEAP) activity in immortalized hTERT-BJI at 19 uM concentration; assay type: functional
[21] = tested on: NCI-H1299; assay: hTERT-SEAP (Human telomerase reverse transcriptase-SEAP) activity in non-small cell lung cancer H1299 cell at 19 uM concentration and level of cell viability determined in MTT assay; assay type: functional
[22] = tested on: BJ; assay: hTERT-SEAP (Human telomerase reverse transcriptase-SEAP) activity in immortalized hTERT-BJI at 190.0 uM concentration and level of cell viability determined in MTT assay; assay type: functional
[23] = tested on: BJ; assay: Compound was tested for cytomegalovirus or (pPCMV-SEAP) activity in immortalized hTERT-BJ1 at 2.2 uM concentration; assay type: functional, Homo sapiens
[24] = tested on: BJ; assay: pPCMV-SEAP (cytomegalovirus-SEAP) activity in immortalized hTERT-BJ1 at 2.2 uM concentration and level of cell viability determined in MTT assay; assay type: functional, Homo sapiens
[25] = tested on: BJ; assay: hTERT-SEAP (Human telomerase reverse transcriptase-SEAP) activity in immortalized hTERT-BJI at 220.0 uM concentration and level of cell viability determined in MTT assay; assay type: functional
[26] = tested on: NCI-H1299; assay: hTERT-SEAP (Human telomerase reverse transcriptase-SEAP) activity in non-small cell lung cancer H1299 cell at 2.2 uM concentration and level of cell viability determined in MTT assay; assay type: functional
[27] = tested on: BJ; assay: Compound was tested for cytomegalovirus or (pPCMV-SEAP) activity in immortalized hTERT-BJ1 at 220 uM concentration; assay type: functional, Homo sapiens
[28] = tested on: BJ; assay: pPCMV-SEAP (cytomegalovirus-SEAP) activity in immortalized hTERT-BJ1 at 22 uM concentration and level of cell viability determined in MTT assay; assay type: functional, Homo sapiens
[29] = tested on: BJ; assay: hTERT-SEAP (Human telomerase reverse transcriptase-SEAP) activity in immortalized hTERT-BJI at 2.2 uM concentration and level of cell viability determined in MTT assay; assay type: functional
[30] = tested on: NCI-H1299; assay: Compound was tested for human telomerase reverse transcriptase-SEAP (hTERT-SEAP) activity in non-small cell lung cancer H1299 cell at 22 uM concentration; assay type: functional
[31] = tested on: BJ; assay: Compound was tested for human telomerase reverse transcriptase-SEAP (hTERT-SEAP) activity in immortalized hTERT-BJI at 220.0 uM concentration; assay type: functional
[32] = tested on: BJ; assay: pPCMV-SEAP (cytomegalovirus-SEAP) activity in immortalized hTERT-BJ1 at 220 uM concentration and level of cell viability determined in MTT assay; assay type: functional, Homo sapiens
[33] = tested on: NCI-H1299; assay: Compound was tested for human telomerase reverse transcriptase-SEAP (hTERT-SEAP) activity in non-small cell lung cancer H1299 cell at 220.0 uM concentration; assay type: functional
[34] = tested on: NCI-H1299; assay: hTERT-SEAP (Human telomerase reverse transcriptase-SEAP) activity in non-small cell lung cancer H1299 cell at 220.0 uM concentration and level of cell viability determined in MTT assay; assay type: functional
[35] = tested on: BJ; assay: Compound was tested for human telomerase reverse transcriptase-SEAP (hTERT-SEAP) activity in immortalized hTERT-BJI at 2.2 uM concentration; assay type: functional
[36] = tested on: BJ; assay: Compound was tested for human telomerase reverse transcriptase-SEAP (hTERT-SEAP) activity in immortalized hTERT-BJI at 22 uM concentration; assay type: functional
[37] = tested on: BJ; assay: hTERT-SEAP (Human telomerase reverse transcriptase-SEAP) activity in immortalized hTERT-BJI at 22 uM concentration and level of cell viability determined in MTT assay; assay type: functional
[38] = tested on: NCI-H1299; assay: Compound was tested for human telomerase reverse transcriptase-SEAP (hTERT-SEAP) activity in non-small cell lung cancer H1299 cell at 2.2 uM concentration; assay type: functional
[39] = tested on: BJ; assay: Compound was tested for cytomegalovirus or (pPCMV-SEAP) activity in immortalized hTERT-BJ1 at 22 uM concentration; assay type: functional, Homo sapiens
[40] = tested on: NCI-H1299; assay: hTERT-SEAP (Human telomerase reverse transcriptase-SEAP) activity in non-small cell lung cancer H1299 cell at 22 uM concentration and level of cell viability determined in MTT assay; assay type: functional
[41] = tested on: NCI-H1299; assay: hTERT-SEAP (Human telomerase reverse transcriptase-SEAP) activity in non-small cell lung cancer H1299 cell at 28 uM concentration and level of cell viability determined in MTT assay; assay type: functional
[42] = tested on: BJ; assay: Compound was tested for human telomerase reverse transcriptase-SEAP (hTERT-SEAP) activity in immortalized hTERT-BJI at 2.8 uM concentration; assay type: functional
[43] = tested on: BJ; assay: Compound was tested for human telomerase reverse transcriptase-SEAP (hTERT-SEAP) activity in immortalized hTERT-BJI at 280.0 uM concentration; assay type: functional
[44] = tested on: NCI-H1299; assay: hTERT-SEAP (Human telomerase reverse transcriptase-SEAP) activity in non-small cell lung cancer H1299 cell at 280.0 uM concentration and level of cell viability determined in MTT assay; assay type: functional
[45] = tested on: NCI-H1299; assay: Compound was tested for human telomerase reverse transcriptase-SEAP (hTERT-SEAP) activity in non-small cell lung cancer H1299 cell at 28.0 uM concentration; assay type: functional
[46] = tested on: BJ; assay: hTERT-SEAP (Human telomerase reverse transcriptase-SEAP) activity in immortalized hTERT-BJI at 28.0 uM concentration and level of cell viability determined in MTT assay; assay type: functional
[47] = tested on: BJ; assay: hTERT-SEAP (Human telomerase reverse transcriptase-SEAP) activity in immortalized hTERT-BJI at 2.8 uM concentration and level of cell viability determined in MTT assay; assay type: functional
[48] = tested on: BJ; assay: Compound was tested for human telomerase reverse transcriptase-SEAP (hTERT-SEAP) activity in immortalized hTERT-BJI at 28.0 uM concentration; assay type: functional
[49] = tested on: BJ; assay: hTERT-SEAP (Human telomerase reverse transcriptase-SEAP) activity in immortalized hTERT-BJI at 280.0 uM concentration and level of cell viability determined in MTT assay; assay type: functional
[50] = tested on: NCI-H1299; assay: Compound was tested for human telomerase reverse transcriptase-SEAP (hTERT-SEAP) activity in non-small cell lung cancer H1299 cell at 280.0 uM concentration; assay type: functional
[51] = tested on: NCI-H1299; assay: hTERT-SEAP (Human telomerase reverse transcriptase-SEAP) activity in non-small cell lung cancer H1299 cell at 2.8 uM concentration and level of cell viability determined in MTT assay; assay type: functional
[52] = tested on: NCI-H1299; assay: Compound was tested for human telomerase reverse transcriptase-SEAP (hTERT-SEAP) activity in non-small cell lung cancer H1299 cell at 2.8 uM concentration; assay type: functional

In the case of `O=C1c2cccc(Sc3ccncc3)c2C(=O)c2cccc(Sc3ccncc3)c21`, the “Relative SEAP activity” value [1] is reported as 103%, the Relative viability [2] is reported as 79% and the Relative viability [3] is reported as 55%. The “Relative SEAP activity” value [4] was 121%, the Relative viability [5] was 45% and the Relative viability [6] was 112%. The “Relative SEAP activity” value [7] was 89%, the Relative viability [8] was 29% and the “Relative SEAP activity” value [9] was 98%. The “Relative SEAP activity” value [10] was 133%, the Relative viability [11] was 91% and the “Relative SEAP activity” value [12] was 104%.

`O=C(Oc1cccc2c1C(=O)c1cccc(OC(=O)c3ccccc3Cl)c1C2=O)c1ccccc1Cl` was tested, and the “Relative SEAP activity” value [13] was 101%, the Relative viability [14] was 30% and the “Relative SEAP activity” value [15] was 97%. For the same compound, the “Relative SEAP activity” value [16] was 93%, the Relative viability [17] was 74% and the Relative viability [18] was 92%. The “Relative SEAP activity” value [19] was 97%, the “Relative SEAP activity” value [20] was 116% and the Relative viability [21] was 34%. The Relative viability [22] was 40%.

In the case of `O=C(Oc1cccc2c1C(=O)c1cccc(OC(=O)c3cccc(Cl)c3)c1C2=O)c1cccc(Cl)c1`, the “Relative SEAP activity” value [13] is reported as 92%, the Relative viability [14] is reported as 46% and the “Relative SEAP activity” value [15] is reported as 81%. The “Relative SEAP activity” value [16] was 83%, the Relative viability [17] was 98% and the Relative viability [18] was 80%. For the same compound, the “Relative SEAP activity” value [19] was 91%, the “Relative SEAP activity” value [20] was 152% and the Relative viability [21] was 88%. The Relative viability [22] was 44%.

For `O=C1c2cccc(Sc3nccc(O)n3)c2C(=O)c2cccc(Sc3nccc(O)n3)c21`, the “Relative SEAP activity” value [23] was 112%, the Relative viability [24] was 107% and the Relative viability [25] was 89%. For the same compound, the Relative viability [26] was 99%, the “Relative SEAP activity” value [27] was 120% and the Relative viability [28] was 118%. For the same compound, the Relative viability [29] was 104%, the “Relative SEAP activity” value [30] was 97% and the “Relative SEAP activity” value [31] was 145%. The Relative viability [32] was 78%, the “Relative SEAP activity” value [33] was 93% and the Relative viability [34] was 51%. For the same compound, the “Relative SEAP activity” value [35] was 93%, the “Relative SEAP activity” value [36] was 116% and the Relative viability [37] was 106%. For the same compound, the “Relative SEAP activity” value [38] was 92%, the “Relative SEAP activity” value [39] was 105% and the Relative viability [40] was 95%.

In the case of `CCCSc1cccc2c1C(=O)c1cccc(SCCC)c1C2=O`, the Relative viability [41] is reported as 44%, the “Relative SEAP activity” value [42] is reported as 132% and the “Relative SEAP activity” value [43] is reported as 122%. The Relative viability [44] was 25%, the “Relative SEAP activity” value [45] was 29% and the Relative viability [46] was 97%. For the same compound, the Relative viability [47] was 103%, the “Relative SEAP activity” value [48] was 110% and the Relative viability [49] was 39%. For the same compound, the “Relative SEAP activity” value [50] was 17%, the Relative viability [51] was 96% and the “Relative SEAP activity” value [52] was 73%.
